Assays:
[1] = system: IFN-γ, TNFα, IL-1β, IL-4, IL-5, IL-6, IL-10, IL-13, and IL17A; experiment: Cytometric bead array of cytokines in BALF of Example 1; type: in vivo, C57BL/6j mice; conditions: 60 mg/kg i.p., treated vs asthmatic mice
Excerpt: Cytometric bead arrays were used as a method to assess the concentration of cytokines of IFN-γ, TNFα, IL-1β, IL-4, IL-5, IL-6, IL-10, IL-13, and IL17A) in the BALF of Example 1. The beads in this array were coated with antibodies specific against a variety of cytokines, some relevant and known to be affected by NLRP3 signaling.

[2] = system: OVA-induced allergic airway inflammation; experiment: Leukocyte subpopulations in BALF, OVA model, oral dapansutrile in food; type: in vivo, mice
Protocol: (§1) The experimental protocols of the mouse model were the same as those described in Example 1, except dapansutrile was administered orally by food. The already-sensitized mice were fed ad libidum with food pellets containing 7.5 g/kg dapansutrile starting on day 22 for one week; the first aerosol challenge was on day 26. Mice typically consume about 4 g of food per day, resulting in an approximate daily dose of 0 mg/kg/day for control groups and 1,000 mg/kg/day for the treatment groups. […] OVA-sensitized, OVA-challenged asthmatic controls (asthmatic) were fed with control food pellets without dapansutrile.

[3] = system: OVA-induced allergic airway inflammation; experiment: Inflammatory cell infiltrate in lung tissue, OVA model, oral dapansutrile in food; type: in vivo; conditions: 7.5 g/kg in food, treated vs asthmatic mice, p<0.05
Protocol: The experimental protocols of the mouse model were the same as those described in Example 1, except dapansutrile was administered orally by food. The already-sensitized mice were fed ad libidum with food pellets containing 7.5 g/kg dapansutrile starting on day 22 for one week; the first aerosol challenge was on day 26. Mice typically consume about 4 g of food per day, resulting in an approximate daily dose of 0 mg/kg/day for control groups and 1,000 mg/kg/day for the treatment groups. […] OVA-sensitized, OVA-challenged asthmatic controls (asthmatic) were fed with control food pellets without dapansutrile. […] The label on the y-axis reads “volume of inflammatory cell infiltrate per basal membrane area (μm^3/μm^2)”. The inflammatory cells were counted within a specific distance around the airways using a microscope with the computer assisted stereological toolbox (CAST) system. These counts were set in ratio to the basal membrane to normalize within each microscopic slide to avoid slide-dependent differences.

[4] = system: OVA-induced allergic airway inflammation; experiment: Goblet cells covering airway mucosa, OVA model, oral dapansutrile in food; type: in vivo, mice
Protocol: as §1, with “dapansutrile. […] (data not shown).” for “dapansutrile.”

[5] = system: OVA-induced allergic airway inflammation; experiment: Airway resistance in response to MCh, OVA model, oral dapansutrile in food; type: in vivo, mice; conditions: 100 mg/mL MCh
Protocol: as §1, with “dapansutrile. […] Baseline airway resistance of healthy animals was 2.58 cm H2O·s/mL at 100 mg/mL MCh.” for “dapansutrile.”

[6] = Blood level in mice fed dapansutrile food pellets; type: in vivo, mouse; conditions: 7.5 g/kg dapansutrile in food, nearly the same as the human level
Protocol: The already-sensitized mice were fed ad libidum with food pellets containing 7.5 g/kg dapansutrile starting on day 22 for one week; the first aerosol challenge was on day 26. Mice typically consume about 4 g of food per day, resulting in an approximate daily dose of 0 mg/kg/day for control groups and 1,000 mg/kg/day for the treatment groups.

[7] = oral, 7.5 g/kg in food, vs asthmatic mice
[8] = oral, 7.5 g/kg in food, vs asthmatic mice, p<0.05

SMILES: CS(=O)(=O)CCC#N [dapansutrile, 3-methanesulfonylpropionitrile]
- concentrations of all measured cytokines in BALF [1]: some reduction
- IL-1β concentration in BALF ([1]; p<0.001): statistically significant reduction
- IL-6 concentration in BALF ([1]; p<0.05): statistically significant reduction
- reduction in eosinophils in BALF ([2]; oral, 7.5 g/kg in food from day 22 for one week, vs asthmatic mice, p<0.0001): ~75%
- macrophage numbers in BALF [2, 7]: no significant reduction
- reduction in lymphocytes in BALF [2, 8]: ~75%
- reduction in neutrophils in BALF [2, 8]: ~75%
- lymphocytes in BALF ([2]; treated mice, oral 7.5 g/kg in food, asthmatic 1.00×10^4): 0.26×10^4 cells/ml
- neutrophils in BALF ([2]; treated mice, oral 7.5 g/kg in food, asthmatic 1.74×10^4): 0.43×10^4 cells/ml
- eosinophils in BALF ([2]; treated mice, oral 7.5 g/kg in food, asthmatic 15.93×10^4): 3.77×10^4 cells/ml
- number of inflammatory cells in lung tissue (volume of inflammatory cell infiltrate per basal membrane area) [3]: significantly lower
- change of goblet cells covering the airway mucosa [4, 7]: −29%
- goblet cells covering the airway mucosa ([4]; treated mice, oral 7.5 g/kg in food, asthmatic 15.75%): 11.16%
- reduction of airway resistance in response to MCh ([5]; oral, 7.5 g/kg in food, vs sham-treated asthmatic controls, p<0.01): approximately 60%
- airway resistance in response to MCh ([5]; treated mice, oral 7.5 g/kg in food, asthmatic 4.57, healthy 2.58): 3.38 cm H2O·s/mL
- blood level [6]: ~40000 ng/mL

From US20220087969A1, “METHOD FOR TREATING ASTHMA” (Olatec Therapeutics LLC, priority 2019, published 2022)
